The record followed here is the supplement of paper PMC10307832.

Common to all, as to test: relative viability (nuclei count vs DMSO), 5 days (fraction); higher = more cells survive
Compound in test [1]: C1=CC=C(C(=C1)C2=CC=C(C=C2)C3=CSC4=C3C(=C(C(=O)N4)C#N)O)O + COc1cc2c(Oc3ccc(NC(=O)C4(C(=O)Nc5ccc(F)cc5)CC4)cc3F)ccnc2cc1OCCCN1CCOCC1 [Foretinib] (partner 0.25 µM)
Summed up: (§1)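 Dosing by pin tool came one day after lung cancer cell lines were seeded in 1536-well plates, using either one drug or a fixed anchor-drug dose plus five library-drug doses (not always all listed) in √10 steps. After 5 days, nuclei were counted on 4× images. Relative viability is treated-well nuclei count divided by vehicle-well nuclei count, and values are medians of duplicate plates.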

Compound in test [2]: C1=CC=C(C(=C1)C2=CC=C(C=C2)C3=CSC4=C3C(=C(C(=O)N4)C#N)O)O + C[C@]1(O)C[C@@H](c2nc(-c3ccc4ccc(-c5ccccc5)nc4c3)c3c(N)nccn32)C1 [Linsitinib] (partner 1 µM)
The essentials:
as §1

Compound in test [3]: O=C(CCCCCCNC(=O)c1cnc(N(c2ccccc2)c2ccccc2)nc1)NO [Ricolinostat] + Cc1cc(Nc2cc(N3CCN(C)CC3)nc(Sc3ccc(NC(=O)C4CC4)cc3)n2)n[nH]1 [Tozasertib] (partner 0.1 µM)
The essentials: as §1

Compound in test [4]: O=C(CCCCCCNC(=O)c1cnc(N(c2ccccc2)c2ccccc2)nc1)NO [Ricolinostat] + C[C@]1(O)C[C@@H](c2nc(-c3ccc4ccc(-c5ccccc5)nc4c3)c3c(N)nccn32)C1 [Linsitinib] (partner 1 µM)
The essentials: as §1

With NCI-H322M, the relative viability in test [1] (first compound 0.08 µM) was found to be 1.01; in test [1] (first compound 0.253 µM), 1.02; in test [1] (first compound 0.8 µM), 0.935; in test [1] (first compound 2.53 µM), 1.02; in test [1] (first compound 8 µM) it was 0.954; in test [2] (first compound 0.08 µM) it was 1.07. The relative viability in test [2] (first compound 0.253 µM) came out at 0.587; in test [2] (first compound 0.8 µM), 0.874; in test [2] (first compound 2.53 µM) it was 0.909; in test [2] (first compound 8 µM), 0.787; in test [3] (first compound 0.253 µM) it was 0.504; in test [3] (first compound 0.8 µM), 0.517. In addition, the relative viability was 0.497 in test [3] (first compound 2.53 µM), 0.865 in test [4] (first compound 0.253 µM), 1.01 in test [4] (first compound 0.8 µM) and 0.968 in test [4] (first compound 2.53 µM).
